Patent publication US6667165B2, “Method and compositions for reversible inhibition of thermostable polymerases” (Eppendorf AG, priority 2001, dated 2003)

What was measured:
Type in all cases: biochemical
Taq DNA polymerase [1] = biological target: T1, Taq DNA polymerase (Thermus aquaticus, UniProt P19821); test: M13 phage DNA primer extension assay (agarose gel read-out); details: for inhibitory effect on Taq DNA polymerase in primer extension assay: 51° C., carbohydrates 1% w/vol, ds Lambda DNA 5 μg/rxn, 10 minutes pre-incubation with Taq; for inhibition of Taq DNA polymerase at 40° C. (FIG. 5) / inhibition of Taq DNA polymerase (FIG. 6): 40° C.; for restoration of Taq DNA polymerase activity at 60° C.: concentration range tested, lowest 10 μmol
T1 construct: purchased Eppendorf AG
T1 sequence (P19821 whole entry): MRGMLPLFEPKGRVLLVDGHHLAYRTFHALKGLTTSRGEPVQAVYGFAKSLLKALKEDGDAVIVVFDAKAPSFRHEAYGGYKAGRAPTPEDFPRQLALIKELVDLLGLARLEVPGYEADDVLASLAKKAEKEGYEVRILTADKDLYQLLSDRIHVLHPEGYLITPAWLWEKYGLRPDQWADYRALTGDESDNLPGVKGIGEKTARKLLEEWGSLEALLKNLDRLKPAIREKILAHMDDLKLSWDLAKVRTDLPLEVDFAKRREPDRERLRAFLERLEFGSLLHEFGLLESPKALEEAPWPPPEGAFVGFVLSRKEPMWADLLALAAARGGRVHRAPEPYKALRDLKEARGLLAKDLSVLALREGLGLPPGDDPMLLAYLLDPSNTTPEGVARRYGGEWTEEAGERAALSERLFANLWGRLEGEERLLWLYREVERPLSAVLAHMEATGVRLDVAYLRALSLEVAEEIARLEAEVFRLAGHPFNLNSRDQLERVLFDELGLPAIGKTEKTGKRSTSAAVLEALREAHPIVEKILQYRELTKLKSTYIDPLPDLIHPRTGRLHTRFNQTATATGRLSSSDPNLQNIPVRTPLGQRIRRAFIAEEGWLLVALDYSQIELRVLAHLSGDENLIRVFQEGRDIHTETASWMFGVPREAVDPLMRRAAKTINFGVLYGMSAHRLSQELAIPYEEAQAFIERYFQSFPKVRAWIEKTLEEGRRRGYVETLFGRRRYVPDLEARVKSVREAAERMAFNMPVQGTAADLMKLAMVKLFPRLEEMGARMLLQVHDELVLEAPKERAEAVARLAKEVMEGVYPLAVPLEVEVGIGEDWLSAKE
Excerpt: A simple non-radioactive primer extension assay was used to monitor the activity of Taq DNA polymerase for DNA synthesis at various temperatures. The universal −47 M13 24-mer sequencing primer (New England Biolabs, Inc.) was annealed to circular single-stranded virion DNA from E. coli phage M13 (New England Biolabs, Inc.) to form an appropriate template for DNA synthesis by Taq DNA polymerase.
During the assay reactions, the annealed primer is extended by stepwise addition of complementary nucleotides (dNTP) on the single-stranded template DNA with Taq polymerase. The polymerase mediated primer extension reaction transforms the circular single-stranded (ss) template DNA into a double-stranded (ds) plasmid-like circular DNA molecule, as shown in FIG. 1. A completely ds circular phage DNA molecule is synthesized when the de-novo synthesized complementary strand reaches the 5′ end of the extended primer. This terminates the DNA synthesis process due to the weak strand displacement activity of Taq DNA polymerase. The ss primed template DNA, the full length ds circular DNA synthesis product, and intermediate synthesis products with ds regions of variable length differ from each other by their electrophoretic mobility in 1% agarose gels. The initial DNA template and all reaction products can be separated and monitored by electrophoresis in a 1% […] agarose gel stained with ethidium bromide.
The electrophoretic mobility of the three species reciprocally correlates with the length of the de-novo synthesized complementary strand. With increasing length of the ds regions, the migration of intermediate primer extension products shifts toward the slow migrating band of ds circular DNA (full-length synthesis product). The amount (band intensity) of the ds full-length synthesis product, as well as the migration shift of intermediate primer extension product, were used as a measure for the activity and extension rate of Taq DNA polymerase under various reaction conditions.
After the denaturation/annealing reaction the primed ss template DNA was stored frozen at −20° C. until use. 5 μL of this primed ss template DNA mix were added into a 50 μL primer extension assay reaction, or 2 μL into a 20 μL assay, respectively. The primer extension assay reactions were set-up on ice in 0.2 mL PCR tubes adding the reaction components to the following final concentrations:
The primer extension reactions were incubated for either 20 or 40 minutes on Eppendorf Mastercyclers set to the desired reaction temperature (30° C.-70° C.). At the end of the incubation time the reaction were placed on ice and 1 μL of 100 mM EDTA was added to stop the reaction immediately. 20 μL of each primer extension assay reaction were loaded on the 1% agarose gel for further analysis.
Soluble carbohydrates 5% w/vol aqueous solutions in molecular biology grade water were prepared. The desired carbohydrates or ds DNA were added to the primer extension reaction described above in Example 2 to final concentrations of 1% w/vol. In modification of the original primer extension assay the reaction mixtures were set-up without the primed template DNA. The primer-template DNA was added to the Taq DNA polymerase/carbohydrate sample after a 10 minutes pre-incubation in order to permit preliminary interaction of the carbohydrate with the Taq DNA polymerase, i.e., pre-incubate the carbohydrate onto the Taq DNA polymerase. The primer extension reactions were incubated for 40 minutes at 51° C. (the critical temperature for specific primer annealing). 20 μl of the reaction mixtures were analyzed on 0.7% agarose gel.
Primer extension assays were carried out in the presence of various concentration of dextran sulfate Mw 1500 (see FIG. 4), Mw 4000, Mw 5000 and Mw 8000 (see FIGS. 5 and 6). The reaction set-up was modified so that the dextran sulfates were pre-mixed into the Taq polymerase solution (5 U/μl) to provide final concentrations as indicated in the Figures. […]

Taq DNA polymerase [2] = biological target: T1, Taq DNA polymerase; test: Primer extension assay quantified with picogreen (de-novo synthesized ds DNA); details: Mw4000, Mw5000, Mw8000 at 175 μmol, 30 μmol and 32 μmol; 5 minutes incubation; FIG. 10
Excerpt: FIG. 10 graphically illustrates the temperature dependent inhibition of Taq DNA polymerase by dextran sulfate Mw4000, Mw5000, and Mw8000 which have been quantitatively analyzed. In each reaction the amount of de-novo synthesized double-stranded DNA was quantified with picogreen on a Fluorescence Microplate Reader. The amount of double-stranded DNA in the control reactions with unmodified Taq polymerase at each temperature tested were taken as 100% activity at the corresponding reaction temperature. […] at the corresponding reaction temperature and multiplied by 100 to calculate the percent of residual activity of dextran sulfate inhibited Taq polymerase from the activity of the unmodified enzyme at that temperature (bold line graphs). 100 minus the percent of residual activity of dextran sulfate inhibited Taq polymerase represents the percent of relative activity inhibition of dextran sulfate/Taq polymerase complexes at each temperature shown with dotted line graphs.
Primer extension was set-up as described in Example 4. The final concentrations of dextran sulfate Mw4000, Mw5000 and Mw8000 were adjusted to 175 μmol, 30 μmol and 32 μmol, respectively. At each tested incubation temperature a control reaction was carried out with unmodified Taq polymerase. After 5 minutes incubation the reactions were stopped as described earlier. 25.2 μl out of 50 μl were used to quantify the yield of de-novo synthesized double-stranded DNA with picogreen. The picogreen stained DNA samples were measured on a Fluorescence Microplate Reader.
The amount of double-stranded DNA in the control reactions with unmodified Taq polymerase at each temperature tested were taken as 100% activity at the corresponding reaction temperature. […]

Taq DNA polymerase [3] = biological target: T1, Taq DNA polymerase; test: 2 kb human β-globin gene fragment PCR, specificity and yield on agarose gel
Protocol: In order to amplify a predictable sized DNA fragment of the human β-globin gene, a pair of known primers was selected from a region of the human β-globin gene (Collins et al (1984) Prog Nucleic Acid Res Mol Biol 31:315-462 to yield PCR products with length of 2.0 kb: The Taq DNA polymerase 5 U/μl containing 0.2 mM dextran sulfate Mw4000 was used in the PCR mixtures (10 mM Tris-HCl, pH 8.3, 50 mM KCl, 2.5 mM Mg(OAc)2, 200 μM dNTP) in which human genomic DNA (100 ng) was used as template. The PCR was performed as follows: 94° C. for 2 min followed by 35 cycles of 55° C.—20 seconds, 72° C.—2:30 minutes and 94° C. for −15 seconds. The PCR products were subjected to agarose gel electrophoresis. Negative control experiments were carried out under the same PCR conditions except that unmodified Taq DNA Polymerase was used in the reaction. A positive control experiment was carried out in the same PCR conditions except that AmpliTaq Gold DNA Polymerase (Perkin Elmer Biosystems), the market leading product for performing highly specific hot start PCR, with the appropriate reaction buffer were used in the reaction.
The same basic PCR assay was performed as described in the previous Examples, except that Taq DNA polymerase preparations were mixed with increasing amounts of dextran sulfate Mw4000. […]

[4] = 20 minutes, first concentration ranges
[5] = 20 minutes, re-fined concentration ranges

methylcellulose [reference compound]
inhibitory effect on Taq DNA polymerase in primer extension assay (Taq DNA polymerase [1]): weak inhibitory effect

dextran sulfate [dextran sulfate Mw 5000]
temperature dependence of Taq DNA polymerase inhibition (relative to unmodified Taq) (Taq DNA polymerase [2]): inhibit Taq DNA polymerase in a temperature dependent manner
inhibition of Taq DNA polymerase at 40° C. (FIG. 5) (Taq DNA polymerase [1]; [4]): strong inhibition
inhibition of Taq DNA polymerase (FIG. 6) (Taq DNA polymerase [1]; [5]): strongest inhibition of all dextran sulfate derivatives tested
inhibitory effect on Taq DNA polymerase in primer extension assay (Taq DNA polymerase [1]; MW 5000): strong inhibition
inhibitory effect on Taq DNA polymerase in primer extension assay (Taq DNA polymerase [1]; listed as dextran sulfate having a molecular weight of 5000): strong inhibitor
concentration at which almost full Taq polymerase activity could be restored between 60-70° C. (Taq DNA polymerase [1]; 20 minutes, dextran sulfate pre-mixed into Taq polymerase solution): 1.25 µM
concentration range with strong inhibition at 40° C. and release of almost full activity at 70° C. (FIG. 5) (Taq DNA polymerase [1]; first concentration ranges, 40° C.-70° C., 20 minutes): 1.25 µmol
concentration range with strong inhibition at 40° C. and release of almost full activity at 70° C. (FIG. 6) (Taq DNA polymerase [1]; re-fined concentration ranges, 40° C.-70° C., 20 minutes): 1.25 µmol

dextran sulfate [dextran sulfate Mw 1500]
concentration at which partial release of inhibition was detected (Taq DNA polymerase [1]; 50° C. and 60° C., FIG. 4): < 50 µmol
restoration of Taq DNA polymerase activity at 60° C. (Taq DNA polymerase [1]; 20 minutes): only be partially restored
restoration of Taq DNA polymerase activity at 60° C. (Taq DNA polymerase [1]; 20 minutes, listed as dextran sulfate Mw 1,500): full synthesis activity could not be regained

dextran sulfate [dextran sulfate Mw 8000]
temperature dependence of Taq DNA polymerase inhibition (relative to unmodified Taq) (Taq DNA polymerase [2]): inhibit Taq DNA polymerase in a temperature dependent manner
inhibition of Taq DNA polymerase at 40° C. (FIG. 5) (Taq DNA polymerase [1]; [4]): strong inhibition
inhibition of Taq DNA polymerase (FIG. 6) (Taq DNA polymerase [1]; [5]): strong inhibition

dextran sulfate [dextran sulfate Mw 4000]
temperature dependence of Taq DNA polymerase inhibition (relative to unmodified Taq) (Taq DNA polymerase [2]): inhibit Taq DNA polymerase in a temperature dependent manner
inhibition of Taq DNA polymerase at 40° C. (FIG. 5) (Taq DNA polymerase [1]; [4]): strong inhibition
inhibition of Taq DNA polymerase (FIG. 6) (Taq DNA polymerase [1]; [5]): strong inhibition
effect on specificity of the PCR reaction (Taq DNA polymerase [3]; 100 ng human genomic DNA, Taq 5 U/μl containing 0.2 mM dextran sulfate, 35 cycles, FIG. 7): significantly enhanced the specificity
yield and specificity of the 2 kb PCR fragment versus concentration (Taq DNA polymerase [3]; increasing amounts of dextran sulfate, FIG. 8): clear correlation
